Results reported in article PMC8437966, “Structure and function relationship of OqxB efflux pump from Klebsiella pneumoniae” (Nature Communications, 2021).
≈ marks a conversion by molar mass, not a printed value.

Assays:
Escherichia coli SEC086 [1] = system: T1, Escherichia coli SEC086; assay: microbe, parasite or virus in culture; design: species or system Escherichia coli clinical isolates; CLSI broth microdilution MIC on E. coli clinical isolates, A600 read-out, 90% growth inhibition; conditions: SEC086, read-out: MIC VALUES / Ampicillin
T1 construct: SEC086
Experimental: (§1) MIC (Minimum Inhibitory Concentration) was determined according to CLSI guidelines, as discussed elsewhere. Briefly, the strains were streaked on LB-Agar plates with Ampicillin (100 µg/mL) from glycerol stocks maintained at −80 °C and allowed to grow overnight at 37 °C. A single colony of each strain was picked from the fresh plates and grown in MHB No.2 Control Cations Hi-Media (MHB) with Ampicillin (100 µg/mL). Phe-Arg β-Naphthylamide (PAβN; Sigma-Aldrich, Catalog no.# P4157) was used at a final concentration of 20 µg/mL, wherever mentioned. The AcrAB and OqxAB expression are under a […] promoter, and AcrB and OqxB were induced with 100 μM of IPTG (Amresco, Catalog no.# 0487-10 G). Antibiotics and their two-fold dilution series were prepared in DMSO. Three microliters compound from each of the dilutions and 150 μL (3–7 × 10^5 CFU/mL) of bacterial culture were added to a flat bottom 96 well microtiter plates to obtain final antibiotic concentrations ranging from 0.03 µg/mL to 160 µg/mL. The plates were packed in gas permeable polythene bags and incubated at 37 °C for 16–18 h. MIC was determined as the concentration at which no bacterial growth was observed as ascertained by absorbance (A600nm) with a spectrophotometer. In the case of the wild-type strain and clinical isolates, 90% growth inhibition was used for MIC determination. […] All experiments were performed in triplicates and the data reported in this work is representative of the same. OqxB, the RND efflux pump component, is associated with increased resistance in clinical isolates of E. coli and K. pneumoniae. To understand the efflux liability for fluoroquinolones in E. coli in the clinic, 84 recent clinical isolates were evaluated by MIC experiments (at St. John’s Medical Hospital, Bengaluru, India). […] To delineate the cause of the resistance, the Quinolone-resistance determining regions (QRDR) of gyrA and parC were sequenced. […] Therefore, complementation experiments in “sensitive strains” were undertaken to further probe the role of OqxB in efflux towards fluoroquinolone resistance.

Escherichia coli SEC030 [2] = system: T2, Escherichia coli SEC030; assay: microbe, parasite or virus in culture; design: species or system Escherichia coli clinical isolates; CLSI broth microdilution MIC on E. coli clinical isolates, A600 read-out, 90% growth inhibition; conditions: SEC030, read-out: MIC VALUES / Ampicillin
T2 construct: SEC030
Experimental: as §1

Escherichia coli SEC032 [3] = system: T3, Escherichia coli SEC032; assay: microbe, parasite or virus in culture; design: species or system Escherichia coli clinical isolates; CLSI broth microdilution MIC on E. coli clinical isolates, A600 read-out, 90% growth inhibition; conditions: SEC032, read-out: MIC VALUES / Ampicillin
T3 construct: SEC032
Experimental: as §1

Escherichia coli SEC037 [4] = system: T4, Escherichia coli SEC037; assay: microbe, parasite or virus in culture; design: species or system Escherichia coli clinical isolates; CLSI broth microdilution MIC on E. coli clinical isolates, A600 read-out, 90% growth inhibition; conditions: SEC037, read-out: MIC VALUES / Ampicillin
T4 construct: SEC037
Experimental: as §1

Escherichia coli SEC050 = system: T5, Escherichia coli SEC050; assay: microbe, parasite or virus in culture; design: species or system Escherichia coli clinical isolates; CLSI broth microdilution MIC on E. coli clinical isolates, A600 read-out, 90% growth inhibition; conditions: SEC050, read-out: MIC VALUES / Ampicillin
T5 construct: SEC050
Experimental: as §1

Escherichia coli SEC045 [5] = system: T6, Escherichia coli SEC045; assay: microbe, parasite or virus in culture; design: species or system Escherichia coli clinical isolates; CLSI broth microdilution MIC on E. coli clinical isolates, A600 read-out, 90% growth inhibition; conditions: SEC045, read-out: MIC VALUES / Ampicillin
T6 construct: SEC045
Experimental: as §1

Escherichia coli SEC046 = system: T7, Escherichia coli SEC046; assay: microbe, parasite or virus in culture; design: species or system Escherichia coli clinical isolates; CLSI broth microdilution MIC on E. coli clinical isolates, A600 read-out, 90% growth inhibition; conditions: SEC046, read-out: MIC VALUES / Ampicillin
T7 construct: SEC046
Experimental: as §1

Escherichia coli SEC056 = system: T8, Escherichia coli SEC056; design: CLSI broth microdilution MIC, 96-well, absorbance at 600 nm
T8 construct: SEC056
Experimental: as §1

Escherichia coli SEC010 = system: T9, Escherichia coli SEC010; design: CLSI broth microdilution MIC, 96-well, absorbance at 600 nm
T9 construct: SEC010
Experimental: as §1

Escherichia coli SEC063 = system: T10, Escherichia coli SEC063; design: CLSI broth microdilution MIC, 96-well, absorbance at 600 nm
T10 construct: SEC063
Experimental: as §1

Escherichia coli SEC032 [6] = system: T3, Escherichia coli SEC032; design: CLSI broth microdilution MIC, 96-well, absorbance at 600 nm
Experimental: as §1

Escherichia coli SEC045 [7] = system: T6, Escherichia coli SEC045; design: CLSI broth microdilution MIC, 96-well, absorbance at 600 nm
Experimental: as §1

Escherichia coli SEC052 = system: T11, Escherichia coli SEC052; design: CLSI broth microdilution MIC, 96-well, absorbance at 600 nm
T11 construct: SEC052
Experimental: as §1

Escherichia coli SEC030 [8] = system: Escherichia coli SEC030
Experimental: as §1

Escherichia coli BW25113 = system: Escherichia coli BW25113
Experimental: as §1

Escherichia coli SEC086 [9] = system: Escherichia coli SEC086
Experimental: as §1

Escherichia coli SEC037 [10] = system: Escherichia coli SEC037
Experimental: as §1

CC1(C)S[C@@H]2[C@H](NC(=O)[C@H](N)c3ccccc3)C(=O)N2[C@H]1C(=O)O [ampicillin]
MIC (Escherichia coli SEC086 [1]): 4 µg/mL (≈ 11.4 µM) | MIC (Escherichia coli SEC030 [2]): 2 µg/mL (≈ 5.72 µM) | MIC (Escherichia coli SEC032 [3]): 8 µg/mL (≈ 22.9 µM) | MIC (Escherichia coli SEC037 [4]): 2 µg/mL (≈ 5.72 µM) | MIC (Escherichia coli SEC050): 8 µg/mL (≈ 22.9 µM) | MIC (Escherichia coli SEC045 [5]): 4 µg/mL (≈ 11.4 µM) | MIC (Escherichia coli SEC046): 8 µg/mL (≈ 22.9 µM)

CC(=O)NC[C@H]1CN(c2ccc(N3CCOCC3)c(F)c2)C(=O)O1 [Linezolid]
Linezolid MIC without PAβN (Escherichia coli SEC056): 200 µg/mL | Linezolid MIC without PAβN (Escherichia coli SEC010): 400 µg/mL | Linezolid MIC without PAβN (Escherichia coli SEC063): 400 µg/mL | Linezolid MIC without PAβN (Escherichia coli SEC032 [6]): 400 µg/mL | Linezolid MIC without PAβN (Escherichia coli SEC045 [7]): 200 µg/mL | Linezolid MIC without PAβN (Escherichia coli SEC052): 200 µg/mL | Linezolid MIC without PAβN (Escherichia coli SEC030 [8]): 400 µg/mL | Linezolid MIC without PAβN (Escherichia coli BW25113): 200 µg/mL | Linezolid MIC without PAβN (Escherichia coli SEC086 [9]): 200 µg/mL | Linezolid MIC without PAβN (Escherichia coli SEC037 [10]): 200 µg/mL
